Measured values as given in US9102701B2, “17-hydroxy-17-pentafluoroethyl-estra-4,9(10)-diene-11-ethynylphenyl derivatives, methods for the production thereof and use thereof for treating diseases” (Bayer Intellectual Property GmbH, priority 2009, dated 2015).

Experiments:
[1] = target: T1, human progesterone receptor A (Homo sapiens, UniProt P06401); assay: Progesterone receptor-antagonistic action in stably transfected SK-N-MC cells, PR-A, MMTV-LUC reporter; assay type: cell-based; conditions: read-out: IC50 PR-A
T1 construct: expressed in transfected cells; host or cells: SK-N-MC human neuroblastoma cells, stably transfected with pRChPR-A-neo and pMMTV-LUC
T1 sequence (P06401 1-769 isoform P06401-2): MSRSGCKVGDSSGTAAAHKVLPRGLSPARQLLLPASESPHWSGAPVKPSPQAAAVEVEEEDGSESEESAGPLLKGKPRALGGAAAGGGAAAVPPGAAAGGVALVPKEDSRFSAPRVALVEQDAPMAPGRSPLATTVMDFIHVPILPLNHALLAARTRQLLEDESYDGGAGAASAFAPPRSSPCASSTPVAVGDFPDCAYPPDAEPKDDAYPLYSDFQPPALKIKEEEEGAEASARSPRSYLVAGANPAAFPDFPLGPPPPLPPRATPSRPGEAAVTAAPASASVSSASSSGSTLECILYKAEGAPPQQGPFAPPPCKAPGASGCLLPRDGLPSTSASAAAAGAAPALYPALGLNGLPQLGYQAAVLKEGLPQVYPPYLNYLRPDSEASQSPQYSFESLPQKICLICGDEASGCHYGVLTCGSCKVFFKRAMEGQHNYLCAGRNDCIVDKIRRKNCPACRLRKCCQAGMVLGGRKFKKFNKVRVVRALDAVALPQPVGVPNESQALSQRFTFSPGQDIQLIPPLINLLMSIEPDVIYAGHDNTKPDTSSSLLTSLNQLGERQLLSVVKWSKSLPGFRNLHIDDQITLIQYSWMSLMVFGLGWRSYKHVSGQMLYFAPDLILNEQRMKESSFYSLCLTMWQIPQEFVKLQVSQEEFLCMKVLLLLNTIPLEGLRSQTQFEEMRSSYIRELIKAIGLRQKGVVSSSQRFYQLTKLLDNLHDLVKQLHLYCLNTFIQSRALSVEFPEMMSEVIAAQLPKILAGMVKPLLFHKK
Method: (§1) Determination of Progesterone Receptor-Antagonistic Action in Stable Transfectants of Human Neuroblastoma Cells (SK-N-MC Cells) with the Human Progesterone a or Progesterone B Receptor and an MN-LUC Reporter Construct
(§2) SK-N-MC cells (human neuroblastoma cells) which have been stably transfected with plasmids expressing the human progesterone receptor B (pRChPR-B-neo) or the human progesterone receptor A (pRChPR-A-neo) and a reporter construct (pMMTV-LUC) were incubated for 24 hours either in the absence (negative control) or in the presence of ascending amounts of the particular test compound (0.01 nmol/l, 0.1 nmol/l, 1 nmol/l, 10 nmol/l, 100 nmol/l and […]), in order to determine the agonistic efficacy. As a positive control of the reporter gene induction, the cells were treated with the synthetic gestagen promegestone (0.01 nmol/l, 0.1 nmol/l, 1 nmol/l, 10 nmol/l, 100 nmol/l and […]). To determine the antagonistic activity, the cells were treated with 0.1 nmol/l promegestone and additionally with ascending amounts of the particular test compound (0.01 nmol/l, 0.1 nmol/l, 1 nmol/l, 10 nmol/l, 100 nmol/l and […]). The activity of the reporter gene LUC (LUC=luciferase) was determined in the cell lysates and measured as RLU (relative light units). All measurements are reported as % efficacy and as EC50 and IC50 concentrations.

[2] = target: T2, human progesterone receptor B (Homo sapiens, UniProt P06401); assay: Progesterone receptor-antagonistic action in stably transfected SK-N-MC cells, PR-B, MMTV-LUC reporter; assay type: cell-based; conditions: read-out: IC50 PR-B
T2 construct: expressed in transfected cells; host or cells: SK-N-MC human neuroblastoma cells, stably transfected with pRChPR-B-neo and pMMTV-LUC
T2 sequence (P06401 1-933): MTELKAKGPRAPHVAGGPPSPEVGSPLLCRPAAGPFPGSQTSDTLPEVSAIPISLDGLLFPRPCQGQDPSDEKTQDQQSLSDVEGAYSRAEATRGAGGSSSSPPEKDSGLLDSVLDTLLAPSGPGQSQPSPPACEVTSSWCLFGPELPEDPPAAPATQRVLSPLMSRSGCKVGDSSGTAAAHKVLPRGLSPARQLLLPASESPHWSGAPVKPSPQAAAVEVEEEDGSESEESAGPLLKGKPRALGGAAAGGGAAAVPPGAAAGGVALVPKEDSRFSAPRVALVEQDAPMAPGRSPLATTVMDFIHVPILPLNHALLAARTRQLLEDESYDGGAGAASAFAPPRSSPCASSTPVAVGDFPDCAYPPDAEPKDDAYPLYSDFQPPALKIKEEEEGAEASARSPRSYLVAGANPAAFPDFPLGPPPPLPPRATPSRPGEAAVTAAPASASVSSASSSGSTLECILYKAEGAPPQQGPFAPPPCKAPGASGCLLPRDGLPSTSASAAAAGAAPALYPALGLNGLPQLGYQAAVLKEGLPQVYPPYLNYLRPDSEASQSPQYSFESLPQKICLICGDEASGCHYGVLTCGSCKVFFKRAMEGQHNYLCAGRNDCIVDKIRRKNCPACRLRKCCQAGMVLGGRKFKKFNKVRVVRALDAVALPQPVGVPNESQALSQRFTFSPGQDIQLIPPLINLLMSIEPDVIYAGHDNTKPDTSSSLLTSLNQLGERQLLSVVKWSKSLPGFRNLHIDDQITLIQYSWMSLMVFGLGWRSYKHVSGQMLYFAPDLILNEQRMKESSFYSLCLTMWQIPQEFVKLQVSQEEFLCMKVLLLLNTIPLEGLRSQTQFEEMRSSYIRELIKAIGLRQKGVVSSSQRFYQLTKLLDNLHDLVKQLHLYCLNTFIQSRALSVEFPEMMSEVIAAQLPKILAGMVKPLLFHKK
Method: as §1, §2

Row | IC50 [1] [nM] | IC50 [2] [nM] | Compound
1 | 8.1 | 10 | COC(=O)COCC#Cc1ccc([C@H]2C[C@@]3(C)[C@@H](CC[C@@]3(O)C(F)(F)C(F)(F)F)[C@@H]3CCC4=CC(=O)CCC4=C32)cc1 [Example 9, {3-[4-((8S,11R,13S,14S,17S)-17-hydroxy-13-methyl-3-oxo-17-pentafluoroethyl-2,3,6,7,8,11,12,13,14,15,16,17-dodecahydro-1H-cyclopenta[a]phenanthren-11-yl)phenyl]prop-2-ynyloxy}acetic acid methyl ester]
2 | 0.01 | 0.08 | C[C@]12C[C@H](c3ccc(C#CCOC(=O)Nc4cccnc4)cc3)C3=C4CCC(=O)C=C4CC[C@H]3[C@@H]1CC[C@@]2(O)C(F)(F)C(F)(F)F [Example 57, 3-pyridylcarbamic acid 3-[4-((8S,11R,13S,14S,17S)-17-hydroxy-13-methyl-3-oxo-17-pentafluoroethyl-2,3,6,7,8,11,12,13,14,15,16,17-dodecahydro-1H-cyclopenta[a]phenanthren-1′-yl)phenyl]prop-2-ynyl ester]
3 | 0.08 | 0.1 | C[C@]12C[C@H](c3ccc(C#Cc4cccc(S(C)(=O)=O)c4)cc3)C3=C4CCC(=O)C=C4CC[C@H]3[C@@H]1CC[C@@]2(O)C(F)(F)C(F)(F)F [Example 51, (8S,11R,13S,14S,17S)-17-hydroxy-11-[4-(3-methanesulphonylphenylethynyl)phenyl]-13-methyl-17-pentafluoroethyl-1,2,6,7,8,11,12,13,14,15,16,17-dodecahydrocyclopenta[a]phenanthren-3-one]
4 | 0.7 | 1.2 | CC(C)(C)c1ccc(NC(=O)OCC#Cc2ccc([C@H]3C[C@@]4(C)C(CC[C@@]4(O)C(F)(F)C(F)(F)F)C4CCC5=CC(=O)CCC5=C43)cc2)cc1 (stereo partly drawn) [Example 59, 4-tert-butylphenylcarbamic acid 3-[4-((8S,11R,13S,14S,17S)-17-hydroxy-13-methyl-3-oxo-17-pentafluoroethyl-2,3,6,7,8,11,12,13,14,15,16,17-dodecahydro-1H-cyclopenta[a]phenanthren-1′-yl)phenyl]prop-2-ynyl ester]
5 | 0.1 | 0.3 | CC(C)(C)NC(=O)NCC#Cc1ccc([C@H]2C[C@@]3(C)[C@@H](CC[C@@]3(O)C(F)(F)C(F)(F)F)[C@@H]3CCC4=CC(=O)CCC4=C32)cc1 [Example 40, 1-{3-[4-((8S,11R,13S,14S,17S)-17-hydroxy-13-methyl-3-oxo-17-pentafluoroethyl-2,3,6,7,8,11,12,13,14,15,16,17-dodecahydro-1H-cyclopenta[a]phenanthren-11-yl)phenyl]prop-2-ynyl}-3-tert-butylurea]
6 | 0.014 | 0.014 | C#Cc1ccc([C@H]2C[C@@]3(C)C(CC[C@@]3(O)C(F)(F)C(F)(F)F)C3CCC4=CC(=O)CCC4=C32)cc1 (stereo partly drawn) [Example 22, (8S,11R,13S,14S,17S)-1′-(4-ethynylphenyl)-17-hydroxy-13-methyl-17-pentafluoroethyl-1,2,6,7,8,11,12,13,14,15,16,17-dodecahydrocyclopenta[a]phenanthren-3-one]
7 | 0.2 | 0.3 | C[C@]12C[C@H](c3ccc(C#CCN=[N+]=[N-])cc3)C3=C4CCC(=O)C=C4CC[C@H]3[C@@H]1CC[C@@]2(O)C(F)(F)C(F)(F)F [Example 23, (8S,11R,13S,14S,17S)-11-[4-(3-azidoprop-1-yn-1-yl)phenyl]-17-hydroxy-13-methyl-17-pentafluoroethyl-1,2,6,7,8,11,12,13,14,15,16,17-dodecahydrocyclopenta[a]phenanthren-3-one]
8 | 0.1 | 0.1 | C[C@]12C[C@H](c3ccc(C#CCNC(=O)NCc4ccccc4)cc3)C3=C4CCC(=O)C=C4CCC3C1CC[C@@]2(O)C(F)(F)C(F)(F)F (stereo partly drawn) [Example 39, 1-benzyl-3-{3-[4-((8S,11R,13S,14S,17S)-17-hydroxy-13-methyl-3-oxo-17-pentafluoroethyl-2,3,6,7,8,11,12,13,14,15,16,17-dodecahydro-1H-cyclopenta[a]phenanthren-1′-yl)phenyl]prop-2-ynyl}urea]
9 | 0.09 | 0.09 | CCO/N=C\C#Cc1ccc([C@H]2C[C@@]3(C)C(CC[C@@]3(O)C(F)(F)C(F)(F)F)C3CCC4=CC(=O)CCC4=C32)cc1 (stereo partly drawn) [Example 25B, (Z)-[4-((8S,11R,13S,14S,17S)-17-hydroxy-13-methyl-3-oxo-17-pentafluoroethyl-2,3,6,7,8,11,12,13,14,15,16,17-dodecahydro-1H-cyclopenta[a]phenanthren-1′-yl)phenyl]propynal O-ethyl oxime]
10 | 0.7 | 1 | COC(=O)c1ccc(C#Cc2ccc([C@H]3C[C@@]4(C)[C@@H](CC[C@@]4(O)C(F)(F)C(F)(F)F)[C@@H]4CCC5=CC(=O)CCC5=C43)cc2)cc1 [Example 15, 4-[4-((8S,11R,13S,14S,17S)-17-hydroxy-13-methyl-3-oxo-17-pentafluoroethyl-2,3,6,7,8,11,12,13,14,15,16,17-dodecahydro-1H-cyclopenta[a]phenanthren-11-yl)phenylethynyl]benzoic acid methyl ester]
11 | 0.16 | 0.19 | CCOC(=O)c1ccc(NC(=O)OCC#Cc2ccc([C@H]3C[C@@]4(C)[C@@H](CC[C@@]4(O)C(F)(F)C(F)(F)F)[C@@H]4CCC5=CC(=O)CCC5=C43)cc2)cc1 [Example 53, 4-{3-[4-((8S,11R,13S,14S,17S)-17-hydroxy-13-methyl-3-oxo-17-pentafluoroethyl-2,3,6,7,8,11,12,13,14,15,16,17-dodecahydro-1H-cyclopenta[a]phenanthren-11-yl)phenyl]prop-2-ynyloxycarbonylamino}benzoic acid ethyl ester]
12 | 0.01 | 0.07 | CC(C)NC(=O)OCC#Cc1ccc([C@H]2C[C@@]3(C)C(CC[C@@]3(O)C(F)(F)C(F)(F)F)C3CCC4=CC(=O)CCC4=C32)cc1 (stereo partly drawn) [Example 49, isopropylcarbamic acid 3-[4-((8S,11R,13S,14S,17S)-17-hydroxy-13-methyl-3-oxo-17-pentafluoroethyl-2,3,6,7,8,11,12,13,14,15,16,17-dodecahydro-1H-cyclopenta[a]phenanthren-1′-yl)phenyl]prop-2-ynyl ester]
